Source: PubChem BioAssay (NCI)
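Test compounds were applied to cells in 96-well plates for 48 hours at 5 doses. At the GI50, growth is halved. At the TGI there is no net growth.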

Key:
Experiment in all cases: DTP human tumour cell line panel, 48 h
OVCAR-4 ovarian = tested on: OVCAR-4 ovarian
A498 renal = tested on: A498 renal
OVCAR-3 ovarian = tested on: OVCAR-3 ovarian
HT29 colon = tested on: HT29 colon
HOP-92 NSCLC = tested on: HOP-92 NSCLC
SK-MEL-5 melanoma = tested on: SK-MEL-5 melanoma
CAKI-1 renal = tested on: CAKI-1 renal
OVCAR-5 ovarian = tested on: OVCAR-5 ovarian
RPMI-8226 leukemia = tested on: RPMI-8226 leukemia
NCI-H23 lung = tested on: NCI-H23 lung
IGROV1 ovarian = tested on: IGROV1 ovarian
NCI-H226 lung = tested on: NCI-H226 lung
RXF 393 renal = tested on: RXF 393 renal
HS 578T breast = tested on: HS 578T breast
HCC-2998 colon = tested on: HCC-2998 colon
CCRF-CEM leukemia = tested on: CCRF-CEM leukemia
SNB-19 CNS = tested on: SNB-19 CNS
MCF7 breast = tested on: MCF7 breast
HL-60(TB) leukemia = tested on: HL-60(TB) leukemia
K-562 leukemia = tested on: K-562 leukemia
ACHN renal = tested on: ACHN renal
SK-MEL-2 melanoma = tested on: SK-MEL-2 melanoma
M14 melanoma = tested on: M14 melanoma
T-47D breast = tested on: T-47D breast
BT-549 breast = tested on: BT-549 breast
SK-MEL-28 melanoma = tested on: SK-MEL-28 melanoma
SNB-75 CNS = tested on: SNB-75 CNS
MDA-MB-468 breast = tested on: MDA-MB-468 breast
786-0 renal = tested on: 786-0 renal
SW-620 colon = tested on: SW-620 colon
NCI-H460 lung = tested on: NCI-H460 lung
MOLT-4 leukemia = tested on: MOLT-4 leukemia
EKVX NSCLC = tested on: EKVX NSCLC
DU-145 prostate = tested on: DU-145 prostate
KM12 colon = tested on: KM12 colon
HOP-62 NSCLC = tested on: HOP-62 NSCLC
MDA-MB-435 = tested on: MDA-MB-435
LOX IMVI melanoma = tested on: LOX IMVI melanoma
UACC-257 melanoma = tested on: UACC-257 melanoma
SF-295 CNS = tested on: SF-295 CNS
HCT-116 colon = tested on: HCT-116 colon
HCT-15 colon = tested on: HCT-15 colon
MALME-3M melanoma = tested on: MALME-3M melanoma
SR leukemia = tested on: SR leukemia
UACC-62 melanoma = tested on: UACC-62 melanoma
SF-539 CNS = tested on: SF-539 CNS
OVCAR-8 ovarian = tested on: OVCAR-8 ovarian
UO-31 renal = tested on: UO-31 renal
NCI-H522 lung = tested on: NCI-H522 lung
SK-OV-3 ovarian = tested on: SK-OV-3 ovarian
SN12C renal = tested on: SN12C renal
COLO 205 colon = tested on: COLO 205 colon
U251 CNS = tested on: U251 CNS
MDA-MB-231 breast = tested on: MDA-MB-231 breast
A549 NSCLC = tested on: A549 NSCLC
PC-3 prostate = tested on: PC-3 prostate
TK-10 renal = tested on: TK-10 renal

For O=c1oc2ccc(-c3ccc(F)cc3F)cc2c(=O)n1-c1ccc(F)cc1, which GI50 (OVCAR-4 ovarian) is on record?
Its GI50 is 2.08 µM.

What about the TGI (OVCAR-4 ovarian) of the same molecule?
Its TGI is 54.1 µM.

And the GI50 (A498 renal)?
Its GI50 is 1.91 µM.

What about the TGI (A498 renal) of the same molecule?
The TGI was 6.17 µM.

And the GI50 (OVCAR-3 ovarian)?
The GI50 was 2.49 µM.

And the TGI (OVCAR-3 ovarian)?
The TGI was 14 µM.

And the GI50 (HT29 colon)?
Its GI50 is 10.3 µM.

What about the TGI (HT29 colon) of the same molecule?
The TGI was 75.8 µM.

And the GI50 (HOP-92 NSCLC)?
The GI50 was 0.95 µM.

And the TGI (HOP-92 NSCLC)?
The TGI was 4.48 µM.

And the GI50 (SK-MEL-5 melanoma)?
The GI50 was 0.799 µM.

And the TGI (SK-MEL-5 melanoma)?
Its TGI is 2.3 µM.

What about the GI50 (CAKI-1 renal) of the same molecule?
The GI50 was 1.48 µM.

And the TGI (CAKI-1 renal)?
The TGI was 5.1 µM.

And the GI50 (OVCAR-5 ovarian)?
The GI50 was 3.2 µM.

And the TGI (OVCAR-5 ovarian)?
The TGI was greater than 100 µM.

What about the GI50 (RPMI-8226 leukemia) of the same molecule?
The GI50 was 1.33 µM.

What about the TGI (RPMI-8226 leukemia) of the same molecule?
The TGI was 7.13 µM.

And the GI50 (NCI-H23 lung)?
The GI50 was 2.08 µM.

What about the TGI (NCI-H23 lung) of the same molecule?
Its TGI is 6.78 µM.

And the GI50 (IGROV1 ovarian)?
The GI50 was 3.02 µM.

And the TGI (IGROV1 ovarian)?
Its TGI is greater than 100 µM.

And the GI50 (NCI-H226 lung)?
Its GI50 is 1.45 µM.

And the TGI (NCI-H226 lung)?
The TGI was 6.5 µM.

What about the GI50 (RXF 393 renal) of the same molecule?
Its GI50 is 1.55 µM.

What about the TGI (RXF 393 renal) of the same molecule?
The TGI was 5.63 µM.

What about the GI50 (HS 578T breast) of the same molecule?
The GI50 was 2.27 µM.

What about the TGI (HS 578T breast) of the same molecule?
Its TGI is 7.51 µM.

What about the GI50 (HCC-2998 colon) of the same molecule?
Its GI50 is 3.31 µM.

And the TGI (HCC-2998 colon)?
The TGI was 13.9 µM.

And the GI50 (CCRF-CEM leukemia)?
Its GI50 is 3.18 µM.

What about the TGI (CCRF-CEM leukemia) of the same molecule?
The TGI was 9.84 µM.

And the GI50 (SNB-19 CNS)?
Its GI50 is 3.58 µM.

What about the TGI (SNB-19 CNS) of the same molecule?
Its TGI is greater than 100 µM.

And the GI50 (MCF7 breast)?
Its GI50 is 2.51 µM.

What about the TGI (MCF7 breast) of the same molecule?
The TGI was greater than 100 µM.

And the GI50 (HL-60(TB) leukemia)?
The GI50 was 2.01 µM.

What about the TGI (HL-60(TB) leukemia) of the same molecule?
The TGI was 6.13 µM.

And the GI50 (K-562 leukemia)?
Its GI50 is 1.58 µM.

And the TGI (K-562 leukemia)?
Its TGI is greater than 100 µM.

And the GI50 (ACHN renal)?
Its GI50 is 3.88 µM.

What about the TGI (ACHN renal) of the same molecule?
Its TGI is greater than 100 µM.

And the GI50 (SK-MEL-2 melanoma)?
Its GI50 is 1.79 µM.

And the TGI (SK-MEL-2 melanoma)?
The TGI was 4.6 µM.

And the GI50 (M14 melanoma)?
The GI50 was 3.49 µM.

And the TGI (M14 melanoma)?
Its TGI is greater than 100 µM.

What about the GI50 (T-47D breast) of the same molecule?
Its GI50 is 0.502 µM.

And the TGI (T-47D breast)?
Its TGI is 4.32 µM.

What about the GI50 (BT-549 breast) of the same molecule?
Its GI50 is 1.92 µM.

What about the TGI (BT-549 breast) of the same molecule?
The TGI was 5.89 µM.

And the GI50 (SK-MEL-28 melanoma)?
Its GI50 is 3.23 µM.

And the TGI (SK-MEL-28 melanoma)?
The TGI was greater than 100 µM.

And the GI50 (SNB-75 CNS)?
The GI50 was 1.38 µM.

What about the TGI (SNB-75 CNS) of the same molecule?
Its TGI is 5.53 µM.

And the GI50 (MDA-MB-468 breast)?
Its GI50 is 1.87 µM.

And the TGI (MDA-MB-468 breast)?
The TGI was 5.67 µM.

And the GI50 (786-0 renal)?
The GI50 was 5.51 µM.

And the TGI (786-0 renal)?
Its TGI is 53.7 µM.

And the GI50 (SW-620 colon)?
Its GI50 is 3.23 µM.

And the TGI (SW-620 colon)?
Its TGI is greater than 100 µM.

And the GI50 (NCI-H460 lung)?
The GI50 was 2.3 µM.

And the TGI (NCI-H460 lung)?
Its TGI is 11.9 µM.

What about the GI50 (MOLT-4 leukemia) of the same molecule?
The GI50 was 2.08 µM.

What about the TGI (MOLT-4 leukemia) of the same molecule?
Its TGI is 8.27 µM.

What about the GI50 (EKVX NSCLC) of the same molecule?
Its GI50 is 2.8 µM.

And the TGI (EKVX NSCLC)?
The TGI was greater than 100 µM.

What about the GI50 (DU-145 prostate) of the same molecule?
The GI50 was 3.3 µM.

And the TGI (DU-145 prostate)?
The TGI was greater than 100 µM.

And the GI50 (KM12 colon)?
Its GI50 is 3.07 µM.

What about the TGI (KM12 colon) of the same molecule?
Its TGI is 10.7 µM.

And the GI50 (HOP-62 NSCLC)?
The GI50 was 2.39 µM.

And the TGI (HOP-62 NSCLC)?
The TGI was 6.93 µM.

And the GI50 (MDA-MB-435)?
Its GI50 is 1.73 µM.

What about the TGI (MDA-MB-435) of the same molecule?
The TGI was 7.09 µM.

What about the GI50 (LOX IMVI melanoma) of the same molecule?
The GI50 was 3.21 µM.

And the TGI (LOX IMVI melanoma)?
Its TGI is 11.2 µM.

What about the GI50 (UACC-257 melanoma) of the same molecule?
The GI50 was 1.64 µM.

What about the TGI (UACC-257 melanoma) of the same molecule?
The TGI was 6.78 µM.

What about the GI50 (SF-295 CNS) of the same molecule?
Its GI50 is 3.46 µM.

And the TGI (SF-295 CNS)?
The TGI was 12.8 µM.

What about the GI50 (HCT-116 colon) of the same molecule?
The GI50 was 3.12 µM.

And the TGI (HCT-116 colon)?
Its TGI is 18.8 µM.

What about the GI50 (HCT-15 colon) of the same molecule?
Its GI50 is 2.91 µM.

What about the TGI (HCT-15 colon) of the same molecule?
The TGI was greater than 100 µM.

And the GI50 (MALME-3M melanoma)?
The GI50 was 1.62 µM.

And the TGI (MALME-3M melanoma)?
Its TGI is 5.34 µM.

And the GI50 (SR leukemia)?
Its GI50 is 2.45 µM.

What about the TGI (SR leukemia) of the same molecule?
The TGI was greater than 100 µM.

And the GI50 (UACC-62 melanoma)?
Its GI50 is 1.37 µM.

And the TGI (UACC-62 melanoma)?
The TGI was 4.65 µM.

What about the GI50 (SF-539 CNS) of the same molecule?
Its GI50 is 2.88 µM.

What about the TGI (SF-539 CNS) of the same molecule?
Its TGI is 12.1 µM.

What about the GI50 (OVCAR-8 ovarian) of the same molecule?
Its GI50 is 3.52 µM.

And the TGI (OVCAR-8 ovarian)?
The TGI was greater than 100 µM.

And the GI50 (UO-31 renal)?
The GI50 was 2.3 µM.

What about the TGI (UO-31 renal) of the same molecule?
Its TGI is 9.44 µM.

What about the GI50 (NCI-H522 lung) of the same molecule?
Its GI50 is 1.23 µM.

What about the TGI (NCI-H522 lung) of the same molecule?
The TGI was 6.15 µM.

What about the GI50 (SK-OV-3 ovarian) of the same molecule?
Its GI50 is 2.15 µM.

And the TGI (SK-OV-3 ovarian)?
The TGI was 6.37 µM.

And the GI50 (SN12C renal)?
Its GI50 is 2.12 µM.

What about the TGI (SN12C renal) of the same molecule?
Its TGI is 8.04 µM.

And the GI50 (COLO 205 colon)?
Its GI50 is 16.3 µM.

What about the TGI (COLO 205 colon) of the same molecule?
Its TGI is 34.8 µM.

And the GI50 (U251 CNS)?
The GI50 was 2.82 µM.

And the TGI (U251 CNS)?
Its TGI is 17.3 µM.

What about the GI50 (MDA-MB-231 breast) of the same molecule?
Its GI50 is 1.76 µM.

What about the TGI (MDA-MB-231 breast) of the same molecule?
Its TGI is 4.41 µM.

What about the GI50 (A549 NSCLC) of the same molecule?
The GI50 was 3.25 µM.

What about the TGI (A549 NSCLC) of the same molecule?
The TGI was greater than 100 µM.

And the GI50 (PC-3 prostate)?
The GI50 was 2.8 µM.

What about the TGI (PC-3 prostate) of the same molecule?
The TGI was 11.7 µM.

And the GI50 (TK-10 renal)?
Its GI50 is 2.78 µM.

And the TGI (TK-10 renal)?
Its TGI is greater than 100 µM.
